Assay results published in patent publication US20110124724A1, “USE OF DRONEDARONE OR A PHARMACEUTICALLY ACCEPTABLE SALT THEREOF, FOR THE PREPARATION OF A MEDICAMENT FOR REGULATING THE POTASIUM LEVEL IN THE BLOOD” (SANOFI-AVENTIS, priority 2008, published 2011).
Where a name gives a salt, the structure may show the parent alone.

Experiment: Prospective, multinational, multicentre, double-blind, placebo-controlled clinical study in patients with a history of atrial fibrillation or atrial flutter
Type: in vivo
Description: The patients had to have a history of atrial fibrillation or flutter and/or could be in normal sinus rhythm or in atrial fibrillation or flutter at inclusion.
The patient recruitment was carried out by taking into account the following inclusion criteria:
Inclusion Criteria: • 1) One of the following risk factors had to be present: • age equal to or above 70, or even above 75, possibly combined with at least one of the risk factors below: • hypertension (taking antihypertensives of at least two different classes), • diabetes, • history of cerebral stroke (transient ischemic event or completed cerebral stroke) or of systemic embolism, • left atrial diameter greater than or equal to 50 mm measured by echocardiography, • left ventricular ejection fraction less than 40%, measured by two-dimensional echography; • 2) availability of an electrocardiogram carried out during the past 6 months in order to document the presence or the history of atrial fibrillation or flutter; • 3) availability of an electrocardiogram carried out during the past 6 months in order to document the presence or absence of normal sinus rhythm.
Treatment was initiated using tablets containing either the placebo or an amount of dronedarone hydrochloride corresponding to 400 mg of dronedarone at a rate of one tablet in the morning during or shortly after breakfast and one tablet in the evening during or shortly after dinner.
The anticipated duration of the treatment was variable according to the time at which each patient was included in the study, and could range from a minimum of 12 months for the last patient included up to a maximum corresponding to the entire duration of the study (12 months+duration of inclusion), i.e. approximately 30 months for the first patients included.
The potassium concentration-modulating effect is clearly documented in the study by virtue of the results of analyses of regular blood samples taken throughout the duration of the study in the context of the monitoring of vital parameters.
The variations in potassium (in mmol/l) between the first and the last administration of the medicament of the study are included in FIG. 1, in which B signifies basal level, D signifies day and M signifies month.
The number of patients with hypokalaemia was compared using Fischer's exact test. Hypokalaemia is defined as a concentration in potassium ion [K+] below 3 mmol/L.

[1] = among 2255 treated patients with a potassium measurement, from randomization until last administration

CCCCc1oc2ccc(NS(C)(=O)=O)cc2c1C(=O)c1ccc(OCCCN(CCCC)CCCC)cc1 [dronedarone hydrochloride]
number of patients with hypokalaemia ([K+] below 3 mmol/L) [1]: 14 patients | proportion of patients with hypokalaemia ([K+] below 3 mmol/L) [1]: 0.6%

CCCCc1oc2ccc(NS(C)(=O)=O)cc2c1C(=O)c1ccc(OCCCN(CCCC)CCCC)cc1 [dronedarone, 2-n-Butyl-3-[4-(3-di-n-butylaminopropoxy)benzoyl]-5-methylsulphonamidobenzofuran]
change in blood potassium level (analysis of covariance, taking into account the starting value) (compared to placebo, after the 24th month, 400 mg dronedarone twice daily, p<0.0001): significant difference in favour of dronedarone | reduction in the risk of sudden death (hypertensive patients): 62% | reduction in the risk of sudden death compared with the placebo (patients not taking diuretics): 34% | reduction in the risk of sudden death compared with the placebo (patients on diuretics): 70.4% | reduction in the risk of sudden death (patients who were not hypertensive): 45.5%
